This note sets out measurements from PubChem BioAssay AID1259407 (Chemical Carcinogenesis Research Information System (CCRIS), 2018).

In the data set the test system is CCRIS mutagenicity, Ames/micronucleus/aberration tests. The data set is described as follows: CCRIS mutagenicity studies. As to conditions: Test System: AMES SALMONELLA TYPHIMURIUM
The mark [1] stands for this setting: Strain/Indicator: TA100, Metabolic Activation: NONE, Method: STANDARD PLATE.

Active and inactive are the calls of the source. The rule behind the calls is not given here.

As to `CC(C)CCNc1snc2ccccc12`, the mutagenic call reads like this: (Strain/Indicator: TA98, Metabolic Activation: NONE, Method: STANDARD PLATE) “inactive; negative”; (Strain/Indicator: TA98, Metabolic Activation: S-9, Method: STANDARD PLATE) “inactive; negative”; under setting [1], “inactive; negative”; (Strain/Indicator: TA100, Metabolic Activation: S-9, Method: STANDARD PLATE) “inactive; negative”; (Strain/Indicator: TA1535, Metabolic Activation: NONE, Method: STANDARD PLATE) “inactive; negative”; (Strain/Indicator: TA1535, Metabolic Activation: S-9, Method: STANDARD PLATE) “inactive; negative”. Besides, the mutagenic call is, setting by setting: (Strain/Indicator: TA1537, Metabolic Activation: NONE, Method: STANDARD PLATE) “inactive; negative”; (Strain/Indicator: TA1537, Metabolic Activation: S-9, Method: STANDARD PLATE) “inactive; negative”.

As for `CC1(C(=O)Nc2ccccc2)CO1` (configuration not stated), the mutagenic call was “active; positive” (Strain/Indicator: TA100, Metabolic Activation: MOUSE, LIVER, S-9, AROCLOR 1254, Method: STANDARD PLATE) and “active; positive” under setting [1].

For `CCCCC(CC)COP(=O)(Oc1ccccc1)Oc1ccccc1` (configuration not stated), the mutagenic call (Strain/Indicator: TA98, Metabolic Activation: HAMSTER, LIVER, S-9, AROCLOR 1254 (10%), Method: PREINCUBATION) is “inactive; negative”; the mutagenic call (Strain/Indicator: TA98, Metabolic Activation: NONE, Method: PREINCUBATION) was “inactive; negative”; the mutagenic call (Strain/Indicator: TA98, Metabolic Activation: RAT, LIVER, S-9, AROCLOR 1254 (10%), Method: PREINCUBATION) was “inactive; negative”; the mutagenic call (Strain/Indicator: TA100, Metabolic Activation: HAMSTER, LIVER, S-9, AROCLOR 1254 (10%), Method: PREINCUBATION) was “inactive; negative”; the mutagenic call (Strain/Indicator: TA100, Metabolic Activation: NONE, Method: PREINCUBATION) was “inactive; negative”; the mutagenic call (Strain/Indicator: TA100, Metabolic Activation: RAT, LIVER, S-9, AROCLOR 1254 (10%), Method: PREINCUBATION) is “inactive; negative”. Further, the mutagenic call by setting is: (Strain/Indicator: TA1535, Metabolic Activation: HAMSTER, LIVER, S-9, AROCLOR 1254 (10%), Method: PREINCUBATION) “inactive; negative”; (Strain/Indicator: TA1535, Metabolic Activation: NONE, Method: PREINCUBATION) “inactive; negative”; (Strain/Indicator: TA1535, Metabolic Activation: RAT, LIVER, S-9, AROCLOR 1254 (10%), Method: PREINCUBATION) “inactive; negative”; (Strain/Indicator: TA1537, Metabolic Activation: HAMSTER, LIVER, S-9, AROCLOR 1254 (10%), Method: PREINCUBATION) “inactive; negative”; (Strain/Indicator: TA1537, Metabolic Activation: NONE, Method: PREINCUBATION) “inactive; negative”; (Strain/Indicator: TA1537, Metabolic Activation: RAT, LIVER, S-9, AROCLOR 1254 (10%), Method: PREINCUBATION) “inactive; negative”.
